Source: patent US9701716B2, “Water buffalo derived dimeric peptide containing proline for antibiotic therapies” (Centaur, Inc., priority 2014, dated 2017)
Where two headings read alike, the source gives them in different places. No end group written: not given here.

Columns and labels:
Staphylococcus aureus [1] = format: cell-based
Method: Additional antimicrobial agents were evaluated for antimicrobial activity, including 23 computationally-derived analogues of SEQ ID NO: 3. These analogues were grouped into two functional series, including those synthesized for improved helicity (Table 2; A-P) and those synthesized for enhanced activity (Table 2; IND, Q-T, and W-X). The antimicrobial activity of the synthetic analogues provided in Table 2 were evaluated using standard techniques such as those described in Sang, et al. 2007 Dev. Comp. Immunol., and herein incorporated by reference. […] The additional antimicrobial agent analogs optimized for helical stability in Example 2 (Table 3) were evaluated for antimicrobial activity. The antimicrobial activity of the synthetic analogues provided in Table 3 were evaluated using standard techniques such as those described in Sang, et al. 2007 Dev. Comp. Immunol., and herein incorporated by reference.

Klebsiella pneumoniae = format: cell-based
Method: (§1) The antimicrobial agents disclosed are derivatives of SEQ. ID. NO.: 3, having 14 amino acids and a broad spectrum of antimicrobial activity. The antimicrobial agents of the disclosure were synthesized and analyzed to evaluate antimicrobial activity. Initially, the antimicrobial agent of SEQ ID NO.: 3 was evaluated for inhibition of clinical isolates of common mastitis pathogens (Table 1).
(§2) The additional antimicrobial agent analogs optimized for helical stability in Example 2 (Table 3) were evaluated for antimicrobial activity. The antimicrobial activity of the synthetic analogues provided in Table 3 were evaluated using standard techniques such as those described in Sang, et al. 2007 Dev. Comp. Immunol., and herein incorporated by reference.
(§3) The antimicrobial activity of SEQ ID NO. 8 was further evaluated against clinical isolates of mastitis-causing bacteria (Table 5).

Staphylococcus aureus [2] = format: cell-based; remark: listed apart in the source
Method: as §1, §2, §3

[3] = tested on: Streptococcus dysgalactiae; format: cell-based
Method: as §1, §2, §3

Corynebacterium species = experiment: MIC against clinical isolates of mastitis pathogens; format: cell-based; details: clinical isolate 404-C18, Corynebacterium species, multidrug resistance ++
Method: as §1, §2, §3

Escherichia coli = format: cell-based
Method: as §2, §3

Staphylococcus aureus [4] = experiment: Mastitis mouse model, CFU in mammary glands; format: in vivo, Balb/c mice; details: 32 μg per gland intra-mammarily, every 24 hrs for 3 days from 24 hours post-infection; Kruskal-Wallis with Dunn's post-test, 5% level of significance
Method: The antimicrobial agent of SEQ ID NO: 8 was evaluated using an in vivo model of bacterial infection to assess the antimicrobial activity of the agent. The following methods and materials were used.
Staphylococcus aureus was isolated from milk from dairy cows with clinical mastitis (Livestock Disease Diagnostic Center, University of Kentucky. Lexington, Ky.). Upon arrival, bacteria were striped on blood agar plates (TSA+5% sheep blood from Remel, Kansas City. Mo.) and cultured at 37° C. for 24 hrs. A fresh single bacterial colony picked from the agar plate was inoculated into 10 ml of Muller Hinton II broth (MHB) and cultured at 37° C. for 4-6 hrs. until reaching an absorbance of 0.8 with a 625 nm spectrophotometer filter. At this absorbance, the MHB has been documented to contain 1×10^5 colony forming units (CFU) in a 50 μl volume.
For the experiment, 56 female Balb/c mice (BW˜[…]) at 7-10 days of lactation were used. Four groups of n=14 mice were used for each experiment as described below. For intramammary inoculation the protocol described by Chandler was followed (J. Med. Microbiol. V3; 273-282: 1970) with minor modifications. […]
All mice were euthanized (using CO2) following the AVMA euthanasia guidelines 24 hours after the last treatment. […] Dilutions (10^−1, 10^−2, and 10^−3) of the homogenates were plated quantitatively to determine the number of CFU per gland. […]

[5] = Staphylococcus aureus, first duplicate
[6] = Staphylococcus aureus, second duplicate

Substance | MIC duplicates (Staphylococcus aureus [1]; [5]) | MIC duplicates (Staphylococcus aureus [1]; [6]) | other results
GLARILLRLLFFRG [WB14-F1, GLARILLRLLFFRG] |  |  | MIC duplicates (Staphylococcus aureus [1]): 8.0,8.0 μg/ml
GLARILLRLLFRFG (Antimicrobial peptide sequence) [WB14-N1, antimicrobial agent optimized for helical stability] | 128,128 μg/ml | 128,128 μg/ml | 
GLARILLRWLFRFG [WB14-N, GLARILLRWLFRFG] |  |  | MIC duplicates (Staphylococcus aureus [1]): 4.0,4.0 μg/ml
GLPWILLRWLFFRG [WB14-A, GLPWILLRWLFFRG] |  |  | MIC (Klebsiella pneumoniae): 25.0 µM; MIC (Staphylococcus aureus [2]): 25.0 µM; MIC [3]: 12.5 µM
GLTRILLRLLLRFG (Antimicrobial peptide sequence) [WB14-O4, antimicrobial agent optimized for helical stability] | 256,256 μg/ml | 256,256 μg/ml | 
GLVRILLRLLFRFG (Antimicrobial peptide sequence) [WB14-O1, antimicrobial agent optimized for helical stability] | 64 µg/mL | 128 µg/mL | 
GLVRILLRLLLRFG (Antimicrobial peptide sequence) [WB14-O2, antimicrobial agent optimized for helical stability] | 256 µg/mL | 128 µg/mL | 
GLVRILLRLLLRFS [WB14-O6, GLVRILLRLLLRFS] |  |  | MIC duplicates (Staphylococcus aureus [1]): >256, >256 μg/ml
GLVRILLRLLLRYG (Antimicrobial peptide sequence) [WB14-O5, antimicrobial agent optimized for helical stability] | 64 µg/mL | 128 µg/mL | 
H-GLARILLRWLFFRG-OH [WB14-F, GLARILLRWLFFRG] |  |  | MIC (Corynebacterium species): 16.0 µg/mL; MIC (Klebsiella pneumoniae): 16.0 µg/mL; MIC [3]: 8.0 µg/mL; MIC (Escherichia coli): 4.0 µg/mL; antimicrobial activity compared with other peptides (in words) (Staphylococcus aureus [1]; Staphylococcus aureus MIC comparison): most efficacious antimicrobial synthetic peptide; colony forming units (CFU) per mammary gland versus control groups (Staphylococcus aureus [4]): a difference between the WB-14F versus the three control groups
SLVRILLRLLLRFG (Antimicrobial peptide sequence) [WB14-O3, antimicrobial agent optimized for helical stability] | 128,128 μg/ml | 128,128 μg/ml | 
